Reference: patent US10633366B2, “Antibacterial compounds” (AZIENDE CHIMICHE RIUNITE ANGELINI FRANCESCO A.C.R.A.F. …, priority 2016, dated 2020)
Where two headings read alike, the source gives them in different places.

Columns and labels:
Assay in all cases: biochemical
[1] = target: E. coli DNA gyrase (Escherichia coli, UniProt P0AES4+P0AES6); conditions: for IC50: IC50 DNA gyrase; for inhibition at 50 µM: read-out: % inhibition DNA gyrase
[2] = target: S. aureus Topoisomerase IV (Staphylococcus aureus, UniProt P0C1S7+P0C1U9); conditions: for inhibition at 50 µM: compound conc. 50 μM, percent of inhibition versus positive control, n/a = not active, read-out: % inhibition Topo IV
[3] = target: E. coli Topoisomerase IV (Escherichia coli, UniProt P0AFI2+P20083); conditions: for IC50: IC50 Topo IV; for inhibition at 50 µM: read-out: % inhibition Topo IV
[4] = target: S. aureus DNA gyrase (Staphylococcus aureus, UniProt P0A0K8+P20831); conditions: for IC50: IC50 DNA gyrase; for inhibition at 50 µM: read-out: % inhibition DNA gyrase

SMILES: O=c1oc2ccc(F)cc2c2[nH]c(CN[C@H]3CC[C@H](n4c(=O)cnc5ncc(F)cc54)CC3)cc12 [Compound 209, 8-fluoro-2-({[trans-4-(7-fluoro-2-oxopyrido[2,3-b]pyrazin-1(2H)-yl)cyclohexyl]amino}methyl)[1]benzopyrano[4,3-b]pyrrol-4(1H)-one]
- IC50 [1]: 130 nM
- inhibition at 50 µM [1]: 100%
- IC50 ([2]; IC50 Topo IV): 220 nM
- inhibition at 50 µM ([2]; S. aureus): 100%
- IC50 [3]: 1000 nM
- inhibition at 50 µM [3]: 100%
- IC50 [4]: 300 nM
- inhibition at 50 µM [4]: 100%

SMILES: O=c1oc2ccc(F)cc2c2[nH]c(CN[C@H]3CC[C@@H](n4c(=O)cnc5ncc(F)cc54)CC3)cc12 [Compound 210, 8-fluoro-2-({[cis-4-(7-fluoro-2-oxopyrido[2,3-b]pyrazin-1(2H)-yl)cyclohexyl]amino}methyl)[1]benzopyrano[4,3-b]pyrrol-4(1H)-one]
- IC50 [1]: 440 nM
- inhibition at 50 µM [1]: 92%
- IC50 ([2]; IC50 Topo IV): 1310 nM
- inhibition at 50 µM ([2]; S. aureus): 84%
- IC50 [3]: 13800 nM
- inhibition at 50 µM [3]: 86%
- IC50 [4]: 1300 nM
- inhibition at 50 µM [4]: 100%

SMILES: O=c1oc2ccc(F)cc2c2[nH]c(CN[C@H]3CC[C@H](n4c(=O)cnc5ccc(F)cc54)CC3)cc12 [Compound 211, 8-fluoro-2-({[trans-4-(7-fluoro-2-oxoquinoxalin-1(2H)-yl)cyclohexyl]amino}methyl)[1]benzopyrano[4,3-b]pyrrol-4(1H)-one]
- IC50 [1]: < 100 nM
- inhibition at 50 µM [1]: 100%
- IC50 ([2]; IC50 Topo IV): < 100 nM
- inhibition at 50 µM ([2]; S. aureus): 100%
- IC50 [3]: < 100 nM
- inhibition at 50 µM [3]: 100%
- IC50 [4]: < 100 nM
- inhibition at 50 µM [4]: 100%

SMILES: COc1cnc2ncc(=O)n([C@H]3CC[C@H](NCc4cc5c(=O)oc6ccc(F)cc6c5[nH]4)CC3)c2c1 [Compound 212, 8-fluoro-2-({[trans-4-(7-methoxy-2-oxopyrido[2,3-b]pyrazin-1(2H)-yl)cyclohexyl]amino}methyl)[1]benzopyrano[4,3-b]pyrrol-4(1H)-one]
- IC50 [1]: 100 nM
- inhibition at 50 µM [1]: 100%
- IC50 ([2]; IC50 Topo IV): 70 nM
- inhibition at 50 µM ([2]; S. aureus): 100%
- IC50 [3]: 170 nM
- inhibition at 50 µM [3]: 100%
- IC50 [4]: 140 nM
- inhibition at 50 µM [4]: 100%

SMILES: COc1cnc2ncc(=O)n([C@H]3CC[C@@H](NCc4cc5c(=O)oc6ccc(F)cc6c5[nH]4)CC3)c2c1 [Compound 213, 8-fluoro-2-({[cis-4-(7-methoxy-2-oxopyrido[2,3-b]pyrazin-1(2H)-yl)cyclohexyl]amino}methyl)[1]benzopyrano[4,3-b]pyrrol-4(1H)-one]
- IC50 [1]: 110 nM
- inhibition at 50 µM [1]: 98%
- IC50 ([2]; IC50 Topo IV): 580 nM
- inhibition at 50 µM ([2]; S. aureus): 84%
- IC50 [3]: 1000 nM
- inhibition at 50 µM [3]: 97%
- IC50 [4]: 280 nM
- inhibition at 50 µM [4]: 100%

SMILES: N#Cc1cnc2c(c1)N([C@H]1CC[C@H](NCc3cc4c(=O)oc5ccc(F)cc5c4[nH]3)CC1)C(=O)CO2 [Compound 214, 1-(trans-4-{[(8-fluoro-4-oxo-1,4-dihydro[1]benzopyrano[4,3-b]pyrrol-2-yl)methyl]amino}cyclohexyl)-2-oxo-2,3-dihydro-1H-pyrido[2,3-b][1,4]oxazine-7-carbonitrile]
- IC50 [1]: 120 nM
- inhibition at 50 µM [1]: 99%
- IC50 ([2]; IC50 Topo IV): 570 nM
- inhibition at 50 µM ([2]; S. aureus): 100%
- IC50 [3]: 1030 nM
- inhibition at 50 µM [3]: 100%
- IC50 [4]: 160 nM
- inhibition at 50 µM [4]: 100%

SMILES: O=c1oc2ccc(F)cc2c2[nH]c(CN[C@H]3CC[C@H](n4c(=O)ccc5ccc(F)cc54)CC3)cc12 [Compound 216, 8-fluoro-2-({[trans-4-(7-fluoro-2-oxoquinolin-1(2H)-yl)cyclohexyl]amino}methyl)[1]benzopyrano[4,3-b]pyrrol-4(1H)-one]
- IC50 [1]: 130 nM
- inhibition at 50 µM [1]: 100%
- IC50 ([2]; IC50 Topo IV): 290 nM
- inhibition at 50 µM ([2]; S. aureus): 100%
- IC50 [3]: 250 nM
- inhibition at 50 µM [3]: 100%
- IC50 [4]: 310 nM
- inhibition at 50 µM [4]: 100%

SMILES: NC(=O)[C@]1(NCc2cc3c(=O)oc4ccc(F)cc4c3[nH]2)CC[C@H](N2C(=O)COc3ncc(F)cc32)CC1 [Compound 217, Trans-1-{[(8-fluoro-4-oxo-1,4-dihydro[1]benzopyrano[4,3-b]pyrrol-2-yl)methyl]amino}-4-(7-fluoro-2-oxo-2,3-dihydro-1H-pyrido[2,3-b][1,4]oxazin-1-yl)cyclohexane-1-carboxamide]
- IC50 [1]: 1450 nM
- inhibition at 50 µM [1]: 82%
- IC50 ([2]; IC50 Topo IV): 2720 nM
- inhibition at 50 µM ([2]; S. aureus): 100%
- IC50 [3]: 690 nM
- inhibition at 50 µM [3]: 50%
- IC50 [4]: 2150 nM
- inhibition at 50 µM [4]: 100%

SMILES: COc1ccc2ccc(=O)n([C@H]3CC[C@H](NCc4cc5c(=O)oc6ccc(F)cc6c5[nH]4)CC3)c2c1 [Compound 219, 8-fluoro-2-({[trans-4-(7-methoxy-2-oxoquinolin-1(2H)-yl)cyclohexyl]amino}methyl)[1]benzopyrano[4,3-b]pyrrol-4(1H)-one]
- IC50 [1]: 220 nM
- inhibition at 50 µM [1]: 100%
- IC50 ([2]; IC50 Topo IV): 650 nM
- inhibition at 50 µM ([2]; S. aureus): 100%
- IC50 [3]: 220 nM
- inhibition at 50 µM [3]: 100%
- IC50 [4]: 220 nM
- inhibition at 50 µM [4]: 100%

SMILES: O=C1COc2ncc(F)cc2N1[C@H]1CC[C@](CO)(NCc2cc3c(=O)oc4ccc(F)cc4c3[nH]2)CC1 [Compound 220, 8-fluoro-2-({[trans-4-(7-fluoro-2-oxo-2,3-dihydro-1H-pyrido[2,3-b][1,4]oxazin-1-yl)-1-(hydroxymethyl)cyclohexyl]amino}methyl)[1]benzopyrano[4,3-b]pyrrol-4(1H)-one]
- IC50 [1]: 680 nM
- inhibition at 50 µM [1]: 100%
- IC50 ([2]; IC50 Topo IV): 2910 nM
- inhibition at 50 µM ([2]; S. aureus): 100%
- IC50 [3]: 740 nM
- inhibition at 50 µM [3]: 50%
- IC50 [4]: 1970 nM
- inhibition at 50 µM [4]: 100%

SMILES: O=C1COc2ncc(F)cc2N1[C@H]1CC[C@H](N(CCO)Cc2cc3c(=O)oc4ccc(F)cc4c3[nH]2)CC1 [Compound 221, 8-fluoro-2-({[trans-4-(7-fluoro-2-oxo-2,3-dihydro-1H-pyrido[2,3-b][1,4]oxazin-1-yl)cyclohexyl](2-hydroxyethyl)amino}methyl)[1]benzopyrano[4,3-b]pyrrol-4(1H)-one]
- IC50 [1]: 920 nM
- inhibition at 50 µM [1]: 81%
- IC50 ([2]; IC50 Topo IV): 2630 nM
- inhibition at 50 µM ([2]; S. aureus): 100%
- IC50 [3]: 670 nM
- inhibition at 50 µM [3]: 50%
- IC50 [4]: 2760 nM
- inhibition at 50 µM [4]: 100%

SMILES: O=C1COc2ncc(F)cc2N1[C@H]1CC[C@H](NCc2cc3c(=O)oc4cccnc4c3[nH]2)CC1 [Compound 301]
- IC50 [1]: 460 nM
- IC50 ([2]; IC50 Topo IV): 70300 nM
- IC50 [3]: 430 nM
- IC50 [4]: 720 nM

SMILES: COc1cnc2c(c1)N([C@H]1CC[C@H](NCc3cc4c(=O)oc5ccc(F)cc5c4[nH]3)CC1)C(=O)CO2 [Compound 302, 8-fluoro-2-({[trans-4-(7-methoxy-2-oxo-2,3-dihydro-1H-pyrido[2,3-b][1,4]oxazin-1-yl)cyclohexyl]amino}methyl)[1]benzopyrano[4,3-b]pyrrol-4(1H)-one]
- IC50 [1]: 590 nM
- IC50 ([2]; S. aureus, Table 4, eight half-log concentrations ranging from 0.1 to 300 μM, read-out: IC50 Topo IV): 3260 nM
- IC50 [3]: 120 nM
- IC50 [4]: 580 nM

SMILES: O=C1COc2ncc(F)cc2N1C1CCN(CC(O)CNc2cc(=O)oc3ccc(F)cc23)CC1 (stereo not drawn) [Compound 303, 7-fluoro-1-(1-{3-[(6-fluoro-2-oxo-2H-1-benzopyran-4-yl)amino]-2-hydroxypropyl}piperidin-4-yl)-1H-pyrido[2,3-b][1,4]oxazin-2(3H)-one]
- IC50 [1]: 2670 nM
- IC50 ([2]; IC50 Topo IV): > 100000 nM
- IC50 [3]: 620 nM
- IC50 [4]: 9920 nM

SMILES: O=C1COc2ncc(F)cc2N1[C@H]1CC[C@H](NCc2cc3ncc4c(c3[nH]2)OCCO4)CC1 [Compound 314, 1-[trans-4-{[(2,3-dihydro-9H-[1,4]dioxino[2,3-d]pyrrolo[3,2-b]pyridin-8-yl)methyl]amino}cyclohexyl]-7-fluoro-1H-pyrido [2,3-b][1,4]oxazin-2(3H)-one]
- IC50 [1]: 850 nM
- IC50 ([2]; IC50 Topo IV): > 100000 nM
- IC50 [3]: 1140 nM
- IC50 [4]: 7100 nM

SMILES: O=C1COc2ncc(F)cc2N1[C@H]1CC[C@H](NCCNc2cc(=O)oc3ccc(F)cc23)CC1 [Compound 354, 7-fluoro-1-[trans-4-({2-[(6-fluoro-2-oxo-2H-1-benzopyran-4-yl)amino]ethyl}amino)cyclohexyl]-1H-pyrido[2,3-b][1,4]oxazin-2(3H)-one]
- IC50 [1]: 470 nM
- IC50 ([2]; IC50 Topo IV): 920 nM
- IC50 [3]: 180 nM
- IC50 [4]: 350 nM
